What was measured:
AMPK = experiment: Western blot for phosphorylated AMPK in L6 myotube lysates; type: cell-based; details: L6 myotubes, 60 minutes; 2, 10 or 20 μmol/l 190-243 peptide; FIG. 8c
Method: Prior to stimulation or treatment cultured myoblast cells were serum starved for 4 hours in serum-free α-MEM and all subsequent treatments, including insulin or phenformin as positive controls (Sigma), were performed in serum free a-MEM. After treatments, cells were washed with ice cold PBS buffer and lysed on ice using a non-denaturing lysis buffer (1% Triton X-100, 50 mmol/l Tris, 150 mmol/l NaCl, pH 8.0) containing protease and phosphatase inhibitors (Roche). Lysates were centrifuged at 16,000×g, 20 minutes at 4° C. and BCA protein assay (Pierce) was performed on supernatants. Equal protein amounts were separated by SDS-PAGE and transferred to nitrocellulose membranes. pAMPK, AMPK, pACC, pAkt, Akt and tubulin were used for immunodetection with IRDye 800CW and 680RD secondary antibodies (LI-COR). Blots were imaged using the Odyssey Fc system and quantified using Image studio v2.0 software.
To dissect the effect of discoidal rHDL on a non-insulin dependent signaling pathway, we conducted western blotting using lysates from L6 myotubes incubated with rHDL. […] Phenformin was used as a positive control, inducing a 1.98±0.33-fold (p=≦0.05) and 2.7±0.74-fold (p=≦0.05) elevation of phosphorylated AMPK and ACC, respectively, at a concentration of 0.4 mmol/l. […] Representative immunoblots of those quantified for FIGS. 3a, c and f are given in FIGS. 3b, d and e, respectively. […]

GLUT4 = GLUT4 translocation to plasma membrane in primary FDB muscle fibers (HA immunofluorescence, ex vivo); type: cell-based; details: FDB fibers of HA-GLUT4-GFP mouse, 60 minutes, insulin 100 nmol/l, FIGS. 1d/7d, 4c/9a
Method: To support the glucose uptake observations described in Example 2, the ability of rHDL and the 190-243 polypeptide fragment (SEQ ID NO:1) to increase the amount of GLUT4 in the plasma membrane was assessed by immunofluorescence microscopy of intact primary skeletal flexor digitorum brevis (FDB) muscle fibers, isolated from a transgenic mouse model with muscle-specific HA-GLUT4-GFP expression (Lizunov et al. (2012) Am J Physiol Endocrinol Metab 302: E950-960). The HA epitope present on the first exofacial loop of the HA-GLUT4-GFP construct allows detection of GLUT4 inserted into the plasma membrane. Intact FDB fibers were incubated ex vivo with rHDL followed by fixation and HA antibody labeling of non-permeabilized cells as described below.
Two to five transgenic mice (C57/Bl6; 10-14 weeks) with muscle specific HA-GLUT4-GFP expression (gift from S. Cushman) (Lizunov et al. (2012) Am J Physiol Endocrinol Metab 302: E950-960), were used for each condition. The animals were euthanized and flexor digitorum brevis (FDB) muscles dissected out and incubated with oxygenated Krebs-Henseleit carbonate Hepes (KRBH) buffer (6 mmol/l KCl, 1 mmol/l Na2HPO4, 0.2 mmol/l NaHPO4, 1.4 mmol/l MgSO4, 1 mmol/l CaCl2, 128 mmol/l NaCl, 10 mmol/l HEPES pH 7.4) with 0.5% (w/v) bovine serum albumin. […]

[1] = Circular dichroism spectroscopy, alpha-helical content; type: physicochemical; details: 0.2 mg/ml in PBS pH 7.4, 25° C.
Method: CD measurements were performed on a Jasco J-810 spectropolarimeter equipped with a Jasco CDF-4265 Peltier set to 25° C. ApoA-I (full-length and the 190-234 polypeptide fragment) was diluted to 0.2 mg/ml in PBS (final concentration was 25 mmol/l phosphate, 25 mmol/l NaCl, pH 7.4), placed in a 0.1 mm quartz cuvette and, after extensive purging with nitrogen, scanned in the region 200 to 260 nm (scan speed was 20 nm/min). Averages of five scans were baseline-subtracted (PBS; 25 mmol/l phosphate, 25 mmol/l NaCl) and the alpha-helical content was calculated from the molar ellipticity at 222 nm as previously described (Petrlova et al. (2012) J Lipid Res 53: 390-398).

[2] = system: insulin resistant C57Bl/6 mice; experiment: Glucose tolerance test in high-fat diet fed (HFD) mice; type: in vivo, mouse
Method: Male C57BL/6 mice (Taconic) were used at 9-12 weeks of age. Animals were on a 12 hour light cycle with non-restricted food and water. The HFD animals were fed an HFD (D12492, 60% fat content; Research Diets) for 2 weeks. All animal procedures were approved by the Malmo/Lund Committee for Animal Experiment Ethics, Lund, Sweden. HFD mice fasted overnight (12 hours) were injected intra peritoneal (i.p.) with apoA-I peptides as listed above ([…] in PBS pH 7.4 for the 54-mer fragment and 6-7 mg/kg for other fragments in PBS, pH 7.4; control animals received NaCl) and this was followed by collection of serum samples at the indicated times. Glucose (50 mg/mouse) was injected i.p. 3 hours after treatments, followed by collection of serum samples at the indicated times. Blood glucose levels were measured (OnetouchUltra2; Lifescan), and insulin levels were assayed in serum using ELISA (Mercodia).

[3] = 7 mg/kg i.p., 120 minutes of the test

Substance	levels of phosphorylated AMPK (in words) (AMPK)	GLUT4 in the sarcolemma plasma membrane (HA signal, in words) (GLUT4)	helical content from molar ellipticity at 222 nm [1] [%]	increase of glucose-stimulated insulin secretion (AUC) versus control [2, 3]	reduction of total glucose (AUC) versus control [2, 3]	insulin secretion in glucose tolerance test (in words) ([2]; single i.p. injection 7 mg/kg, glucose load 3 hours later, FIG. 10c,d)
190-243 polypeptide fragment: polypeptide fragment consisting of amino acids 190-243 of the full-length human apoA-I protein, C-terminal domain, 54-mer, recombinant (AEYHAKATEHLSTLSEKAKPALEDLRQGLLPVLESFKVSFLSALEEYTKKLNTQ; listed as Homo Sapiens)	increased levels of phosphorylated AMPK	greater membrane levels of GLUT4 protein	28	about 60%	about 40%	significantly improved
insulin	–	induced translocation of GLUT4 into the sarcolemma plasma membrane	–	–	–	–

— US20150353626A1, “APOLIPOPROTEIN A-I DERIVED PEPTIDES FOR TREATMENT OF HYPERGLYCAEMIA” (priority 2013, published 2015)
